This is an account of results in ChEMBL document CHEMBL1909046, “DrugMatrix in vitro pharmacology data”.

Assay [1] can be described thus: DRUGMATRIX: Calcium Channel Type L, Phenylalkylamine radioligand binding (ligand: [3H] (-)-Desmethoxyverapamil (D-888)). Type of assay: cell membranes, Rattus norvegicus, Wistar, Brain, Membrane. The following applies: Not Active = under 50% inhibition at 10 µM.
The target of assay [2] is T1, Progesterone receptor (Bos taurus, UniProt Q690N0).
T1 sequence (Q690N0 whole entry): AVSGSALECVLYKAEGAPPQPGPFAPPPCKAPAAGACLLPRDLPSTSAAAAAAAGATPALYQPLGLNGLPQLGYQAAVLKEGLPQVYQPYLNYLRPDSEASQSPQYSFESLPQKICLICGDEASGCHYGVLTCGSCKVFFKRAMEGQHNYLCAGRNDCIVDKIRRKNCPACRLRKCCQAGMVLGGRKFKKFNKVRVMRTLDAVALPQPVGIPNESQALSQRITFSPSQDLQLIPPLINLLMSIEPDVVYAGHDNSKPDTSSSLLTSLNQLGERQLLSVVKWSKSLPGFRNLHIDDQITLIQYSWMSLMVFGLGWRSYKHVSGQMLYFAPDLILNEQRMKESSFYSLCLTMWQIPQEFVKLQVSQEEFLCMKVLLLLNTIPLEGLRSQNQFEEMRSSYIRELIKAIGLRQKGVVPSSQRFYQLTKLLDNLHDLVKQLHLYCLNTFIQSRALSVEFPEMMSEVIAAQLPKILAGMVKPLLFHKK
Briefly: DRUGMATRIX: Progesterone radioligand binding (ligand: [3H] R-5020). It counts as tissue-based, Uterus. The following applies: Not Active = under 50% inhibition at 10 µM.

Assay [3] addresses T2, Type-2 angiotensin II receptor (Homo sapiens, UniProt P50052).
T2 sequence (P50052 whole entry): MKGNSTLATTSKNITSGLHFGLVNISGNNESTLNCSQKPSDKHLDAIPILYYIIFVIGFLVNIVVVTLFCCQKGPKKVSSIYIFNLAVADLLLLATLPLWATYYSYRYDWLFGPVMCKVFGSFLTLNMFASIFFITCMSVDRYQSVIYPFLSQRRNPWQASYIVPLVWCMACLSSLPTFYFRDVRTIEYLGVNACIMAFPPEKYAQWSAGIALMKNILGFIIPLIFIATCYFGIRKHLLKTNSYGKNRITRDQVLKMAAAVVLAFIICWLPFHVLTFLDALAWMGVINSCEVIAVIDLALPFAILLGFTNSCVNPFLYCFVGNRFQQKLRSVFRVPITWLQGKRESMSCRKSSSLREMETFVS
Type of assay: cell-based. The following applies: cho-k1.

The target of assay [4] is Melanocortin receptor 3 (Homo sapiens, UniProt P41968). It counts as cell membranes, HEK293, Membrane. The following applies: hek293. Note: in other assays of this panel Not Active means under 50% inhibition at 10 µM.
In assay [5] the target is 5-hydroxytryptamine receptor 1B (Rattus norvegicus, UniProt P28564). It counts as cell membranes, Wistar, Cerebral cortex, Membrane. Note: in other assays of this panel Not Active means under 50% inhibition at 10 µM.
The target in assay [6] is Epidermal growth factor receptor (Homo sapiens, UniProt P00533). As to the kind of experiment: DRUGMATRIX: Protein Tyrosine Kinase, EGF Receptor enzyme inhibition (substrate: Poly(Glu:Tyr)). It counts as cell-based, Insect cells. The following applies: Not Active = under 50% inhibition at 10 µM.

A word on the IC50: it is the concentration at which inhibition is half-maximal. Usually Ki stands for the dissociation constant of the complex between target and ligand, obtained from inhibition or displacement.

*1 amine or outer side, *2 acyl side, *3 side chain or, on linkers, in order; H or OH if unused. Where a SMILES comes first, the peptide text is derived from it. Bridges are numbered along the chain shown (N, C = ends). Roman numbers before positions name the chains, in order. [ ]: non-standard residue; d: D form. Actinocin(1to9) = Cc1c2oc3c(C)ccc(C(=O)[*:2])c3nc-2c(C(=O)[*:1])c(N)c1=O; NMeV = CN[C@H](C(=O)O)C(C)C; Sar = CNCC(=O)O

Sequence of 5-hydroxytryptamine receptor 1B (P28564 whole entry): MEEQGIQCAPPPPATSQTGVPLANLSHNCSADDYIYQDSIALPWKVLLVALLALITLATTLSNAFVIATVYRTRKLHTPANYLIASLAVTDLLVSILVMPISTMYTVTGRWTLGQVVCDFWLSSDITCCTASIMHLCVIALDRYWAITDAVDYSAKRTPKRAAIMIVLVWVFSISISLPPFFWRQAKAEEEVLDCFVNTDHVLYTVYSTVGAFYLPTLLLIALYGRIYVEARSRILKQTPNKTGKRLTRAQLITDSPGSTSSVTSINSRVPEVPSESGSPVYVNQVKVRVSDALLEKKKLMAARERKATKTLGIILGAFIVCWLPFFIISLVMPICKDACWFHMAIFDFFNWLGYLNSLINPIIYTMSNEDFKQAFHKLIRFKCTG
Sequence of Melanocortin receptor 3 (P41968 whole entry): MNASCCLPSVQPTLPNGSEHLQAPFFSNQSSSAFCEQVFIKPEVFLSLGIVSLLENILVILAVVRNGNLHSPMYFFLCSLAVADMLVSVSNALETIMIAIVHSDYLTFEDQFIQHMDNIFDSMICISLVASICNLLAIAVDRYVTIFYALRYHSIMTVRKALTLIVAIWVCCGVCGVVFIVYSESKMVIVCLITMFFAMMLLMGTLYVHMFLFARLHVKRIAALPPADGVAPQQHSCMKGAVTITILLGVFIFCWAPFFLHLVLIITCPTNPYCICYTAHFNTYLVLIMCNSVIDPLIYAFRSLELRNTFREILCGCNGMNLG

For the molecule `CC(=O)O[C@@]12CO[C@@H]1C[C@H](O)[C@@]1(C)C(=O)[C@H](O)C3=C(C)[C@@H](OC(=O)[C@H](O)[C@@H](NC(=O)OC(C)(C)C)c4ccccc4)C[C@@](O)([C@@H](OC(=O)c4ccccc4)[C@H]21)C3(C)C.O.O.O` [DOCETAXEL], the IC50 entry in assay [1], in assay [2], in assay [3], in assay [4], in assay [5] and in assay [6] (insect cells) was “Not Active” throughout. Further, in assay [1], the Ki entry is given as “Not Active”.

With `C[C@H]1c2cccc(O)c2C(=O)C2=C(O)[C@]3(O)C(=O)C(C(N)=O)=C(O)[C@@H](N(C)C)[C@@H]3[C@@H](O)[C@@H]21.O` [DOXYCYCLINE], the IC50 result in assay [1], in assay [2], in assay [3], in assay [4], in assay [5] and in assay [6] (insect cells) was “Not Active” in each case. Further, the Ki entry in assay [1] is reported as “Not Active”.

For the molecule CADMIUM ACETATE, the IC50 entry in assay [1] was “Not Active”; in assay [2], “Not Active”; in assay [3] it was “Not Active”; in assay [4], “Not Active”; in assay [5], “Not Active”; in assay [6] (insect cells, read-out: IC50), 244 nM. The Ki result in assay [1], in assay [2], in assay [3], in assay [4] and in assay [5] was “Not Active” each time.

Regarding `CC(C)[C@@]1(NC(=O)[C@@H]2C[C@@H]3c4cccc5[nH]cc(c45)C[C@H]3N(C)C2)O[C@@]2(O)[C@@H]3CCCN3C(=O)[C@H](Cc3ccccc3)N2C1=O.CS(=O)(=O)O` [DIHYDROERGOCRISTINE MESYLATE], the IC50 result in assay [1] is “Not Active”; in assay [2], “Not Active”; in assay [3] it was “Not Active”; in assay [4], “Not Active”; in assay [5] (read-out: IC50), 24 nM; in assay [6] (insect cells) it was “Not Active”. Moreover, the values for the Ki result in assay [1] and in assay [5] (read-out: Ki) were “Not Active” and 11 nM, respectively.

For the molecule LIPOPOLYSACCHARIDE E. COLI O55:B5, the IC50 result is “Not Active” in assay [1]; “Not Active” in assay [2]; “Not Active” in assay [3]; “Not Active” in assay [4]; “Not Active” in assay [5]; 188 nM in assay [6] (insect cells, read-out: IC50). Also, the Ki result in assay [1], in assay [2], in assay [3], in assay [4] and in assay [5] was “Not Active” throughout.

Regarding `Nc1c(Br)cc(Br)cc1CN[C@H]1CC[C@H](O)CC1` [AMBROXOL], the IC50 result in assay [1], in assay [2], in assay [3], in assay [4], in assay [5] and in assay [6] (insect cells) was “Not Active” each time. In assay [1], the Ki result is on record as “Not Active”.

Consider `NCCCCCC(=O)O` [AMINOCAPROIC ACID], for which the IC50 entry in assay [1], in assay [2], in assay [3], in assay [4], in assay [5] and in assay [6] (insect cells) was “Not Active” each time. For the same molecule, the Ki entry in assay [1] is “Not Active”.

Regarding `CCC(C)n1ncn(-c2ccc(N3CCN(c4ccc(OCC5COC(Cn6cncn6)(c6ccc(Cl)cc6Cl)O5)cc4)CC3)cc2)c1=O` (centres undefined) [ITRACONAZOLE], the IC50 entry in assay [1], in assay [2], in assay [3], in assay [4], in assay [5] and in assay [6] (insect cells) was “Not Active” throughout. The Ki entry in assay [1] is recorded as “Not Active”.

For the molecule `Cc1c(C)c2c(c(C)c1O)CC[C@@](C)(CCC[C@H](C)CCC[C@H](C)CCCC(C)C)O2` [ALPHA-TOCOPHEROL], the IC50 result in assay [1], in assay [2], in assay [3], in assay [4], in assay [5] and in assay [6] (insect cells) was “Not Active” in each case. The Ki entry in assay [1] is listed as “Not Active”.

With `Cc1cc(C(C#N)c2ccc(Cl)cc2)c(Cl)cc1NC(=O)c1cc(I)cc(I)c1O` (centres undefined) [CLOSANTEL], the IC50 entry in assay [1] was “Not Active”; in assay [2], “Not Active”; in assay [3] it was “Not Active”; in assay [4] it was “Not Active”; in assay [5] it was “Not Active”; in assay [6] (read-out: IC50) it was 564 nM. Moreover, in assay [1], the Ki result is reported as “Not Active”.

In the case of `CNNCc1ccc(C(=O)NC(C)C)cc1` [PROCARBAZINE], the IC50 result in assay [1], in assay [2], in assay [3], in assay [4], in assay [5] and in assay [6] (insect cells) was “Not Active” throughout. For the same molecule, the Ki result in assay [1] is given as “Not Active”.

As for `Cc1ccc(/N=C/N(C)/C=N/c2ccc(C)cc2C)c(C)c1` [AMITRAZ], the IC50 result in assay [1], in assay [2], in assay [3], in assay [4], in assay [5] and in assay [6] (insect cells) was “Not Active” throughout. In assay [1], the Ki result is given as “Not Active”.

In the case of `Cc1ccc2cc3c(ccc4ccccc43)c3c2c1CC3` [3-METHYLCHOLANTHRENE], the IC50 entry in assay [1], in assay [2], in assay [3], in assay [4], in assay [5] and in assay [6] (insect cells) was “Not Active” throughout. Moreover, the Ki entry in assay [1] is given as “Not Active”.

Turning to `CNCCc1ccccn1` [BETAHISTINE], the IC50 entry in assay [1], in assay [2], in assay [3], in assay [4], in assay [5] and in assay [6] (insect cells) was “Not Active” throughout. In addition, the Ki result in assay [1] was “Not Active”.

As for `OC(Cn1cncn1)(Cn1cncn1)c1ccc(F)cc1F` [FLUCONAZOLE], the IC50 entry in assay [1], in assay [2], in assay [3], in assay [4], in assay [5] and in assay [6] (insect cells) was “Not Active” each time. In addition, the Ki result in assay [1] is recorded as “Not Active”.

On to `Cc1c2oc3c(C)ccc(C(=O)N[C@@H]4C(=O)N[C@H](C(C)C)C(=O)N5CCC[C@H]5C(=O)N(C)CC(=O)N(C)[C@@H](C(C)C)C(=O)O[C@@H]4C)c3nc-2c(C(=O)N[C@@H]2C(=O)N[C@H](C(C)C)C(=O)N3CCC[C@H]3C(=O)N(C)CC(=O)N(C)[C@@H](C(C)C)C(=O)O[C@@H]2C)c(N)c1=O` [DACTINOMYCIN] (I: T[dV]P[Sar][NMeV] / II: T[dV]P[Sar][NMeV]; ester I:1-I:C, II:1-II:C; linker I:N-II:N via Actinocin(1to9)), for which the IC50 result in assay [1], in assay [2], in assay [3], in assay [4], in assay [5] and in assay [6] (insect cells) was “Not Active” throughout. For the same molecule, in assay [1], the Ki result is on record as “Not Active”.

In the case of `Nc1nc(N)nc(-c2cc(Cl)ccc2Cl)n1.O=C(O)/C=C\C(=O)O` [IRSOGLADINE MALEATE], the IC50 entry in assay [1], in assay [2], in assay [3], in assay [4], in assay [5] and in assay [6] (insect cells) was “Not Active” in each case. Besides, the Ki result in assay [1] is listed as “Not Active”.

With `Nc1ncn([C@@H]2O[C@H](CO)[C@@H](O)[C@H]2O)c(=O)n1` [AZACITIDINE], the IC50 result in assay [1], in assay [2], in assay [3], in assay [4], in assay [5] and in assay [6] (insect cells) was “Not Active” in each case. Also, the Ki result in assay [1] is listed as “Not Active”.

Turning to `CC(NC(C)(C)C)C(=O)c1cccc(Cl)c1` (centres undefined) [BUPROPION], the IC50 entry in assay [1], in assay [2], in assay [3], in assay [4], in assay [5] and in assay [6] (insect cells) was “Not Active” each time. The Ki entry in assay [1] is given as “Not Active”.

Regarding `Cc1cc(C2CCCCC2)n(O)c(=O)c1` [CICLOPIROX], the IC50 entry in assay [1], in assay [2], in assay [3], in assay [4], in assay [5] and in assay [6] (insect cells) was “Not Active” throughout. Further, the Ki result in assay [1] was “Not Active”.
